Assays:
[1] = target: T1, rat androgen receptor (Rattus norvegicus, UniProt P15207); assay: biochemical; details: 3H-mibolerone 1 nM, rat prostate cytosol; Ki calculated from IC50 by Cheng and Prusoff; read-out: Binding activity for rat androgen receptor (Ki = nM)
T1 construct: The cytosol fraction obtained in the step (1) was adjusted to a protein concentration of 1 mg/ml and used as a rat androgen receptor solution; from tissue; host or cells: rat ventral prostate gland cytosol fraction (male Wistar rats, castrated)
T1 sequence (P15207 1-902): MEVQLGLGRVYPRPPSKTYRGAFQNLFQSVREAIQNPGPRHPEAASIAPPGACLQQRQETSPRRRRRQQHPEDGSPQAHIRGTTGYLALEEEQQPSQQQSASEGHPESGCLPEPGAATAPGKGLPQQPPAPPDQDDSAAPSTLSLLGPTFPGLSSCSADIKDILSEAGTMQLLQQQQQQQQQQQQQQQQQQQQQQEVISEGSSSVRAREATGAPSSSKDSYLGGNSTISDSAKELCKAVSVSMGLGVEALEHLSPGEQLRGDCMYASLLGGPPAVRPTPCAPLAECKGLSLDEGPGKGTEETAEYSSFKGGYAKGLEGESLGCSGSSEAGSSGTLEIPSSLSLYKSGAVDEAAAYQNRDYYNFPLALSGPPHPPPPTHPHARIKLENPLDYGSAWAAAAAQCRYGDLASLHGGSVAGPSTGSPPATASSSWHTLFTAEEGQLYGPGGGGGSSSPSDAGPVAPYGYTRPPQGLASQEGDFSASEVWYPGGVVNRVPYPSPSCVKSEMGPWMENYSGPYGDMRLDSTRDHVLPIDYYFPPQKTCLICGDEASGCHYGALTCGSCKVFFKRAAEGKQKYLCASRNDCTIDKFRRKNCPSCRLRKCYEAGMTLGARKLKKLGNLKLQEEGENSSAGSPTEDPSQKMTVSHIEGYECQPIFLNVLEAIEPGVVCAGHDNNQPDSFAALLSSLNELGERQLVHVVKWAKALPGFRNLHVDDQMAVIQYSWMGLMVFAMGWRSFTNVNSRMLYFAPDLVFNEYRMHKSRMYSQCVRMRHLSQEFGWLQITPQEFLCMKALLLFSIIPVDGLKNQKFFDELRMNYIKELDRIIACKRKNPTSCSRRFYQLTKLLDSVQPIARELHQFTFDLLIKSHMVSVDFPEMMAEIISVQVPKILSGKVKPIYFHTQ

Work on `C[C@@H]1CN(c2ccc(C#N)c(C(F)(F)F)c2)[C@@H](C)CN1C(=O)Nc1ccc(F)nc1` yielded a melting point of 163 to 165 °C.
In the case of `CC1(C)CN(c2ccc(C#N)c(C(F)(F)F)c2)CN1C(=O)Nc1ccc(F)cc1`, the melting point was 199 to 200 °C.
`CC(=O)Nc1nccc(NC(=O)N2C[C@@H](C)N(c3ccc(C#N)c(C(F)(F)F)c3)C[C@@H]2C)n1` (racemic) showed a melting point of 191 to 193 °C.
`C[C@@H]1CN(C(=O)Nc2ccnc(N)c2)[C@@H](C)CN1c1ccc(C#N)c(C(F)(F)F)c1` (racemic) showed a melting point of 208 to 211 °C.
In the case of `C[C@@H]1CN(C(=O)Nc2ccc(F)cc2)[C@@H](C)CN1c1ccc(C#N)c(C(F)(F)F)c1` (relative stereo), the melting point was 200 to 203 °C.
`C[C@@H]1CN(c2ccc(C#N)c(C(F)(F)F)c2)[C@@H](C)CN1C(=O)N1CC[S+]([O-])CC1` (relative stereo) gave a melting point of 173 to 175 °C.
With `C[C@@H]1CN(C(=O)NC(C)(C)c2ccccc2)[C@@H](C)CN1c1ccc(C#N)c(C(F)(F)F)c1` (relative stereo) the melting point was 152.5 to 153.5 °C.
With `C[C@@H]1CN(c2ccc(C#N)c(C(F)(F)F)c2)[C@@H](C)CN1C(=O)Nc1ccnc(Br)c1` [Example 6-1, (2R,5S)-N-(2-Bromo-4-pyridyl)-4-(4-cyano-3-trifluoromethylphenyl)-2,5-dimethylpiperazine-1-carboxamide] the Ki [1] was 7.56 nM.
Molecule `COc1ccc(NC(=O)N2C[C@H](C)N(c3ccc(C#N)c(C(F)(F)F)c3)C[C@H]2C)cn1` [Example 6-13, (2R,5S)-4-(4-Cyano-3-trifluoromethylphenyl)-N-(6-methoxy-3-pyridyl)-2,5-dimethylpiperazine-1-carboxamide] has a Ki [1] of 3.58 nM and a melting point of 184 to 185 °C.
Molecule `CNC(=O)c1cc(NC(=O)N2C[C@H](C)N(c3ccc(C#N)c(C(F)(F)F)c3)C[C@H]2C)ccn1` [Example 13-1, (2R,5S)-4-(4-Cyano-3-trifluoromethylphenyl)-2,5-dimethyl-N-(2-methylcarbamoyl-4-pyridyl)piperazine-1-carboxamide] has a Ki [1] of 1.91 nM.
Work on `C[C@@H]1CN(c2ccc(C#N)c(C(F)(F)F)c2)[C@@H](C)CN1C(=O)Nc1ccc(C#N)nc1` [Example 18-7, (2R,5S)-N-(6-Cyano-3-pyridyl)-4-(4-cyano-3-trifluoromethylphenyl)-2,5-dimethylpiperazine-1-carboxamide] yielded a Ki [1] of 6.66 nM and a melting point of 220 to 222 °C.
In the case of `C[C@@H]1CN(c2ccc(C#N)c(C(F)(F)F)c2)[C@@H](C)CN1C(=O)Nc1ccnc(F)c1` [Example 18-8, (2R,5S)-4-(4-Cyano-3-trifluoromethylphenyl)-N-(2-fluoro-4-pyridyl)-2,5-dimethylpiperazine-1-carboxamide], the Ki [1] was 15.6 nM.
For `C[C@@H]1CN(c2ccc(C#N)c(C(F)(F)F)c2)[C@@H](C)CN1C(=O)Nc1ccnc(N)n1` [Example 21, (2R,5S)-N-(2-Amino-pyrimidin-4-yl)-4-(4-cyano-3-trifluoromethylphenyl)-2,5-dimethylpiperazine-1-carboxamide], the Ki [1] was 1.81 nM.

From US6673799B1, “Cyanophenyl derivative” (priority 1998, dated 2004)
